Reference: patent publication US11608328B2, “Chemical probes to identify anti-mycobacterial MmpL3 inhibitors” (Creighton University, priority 2019, dated 2023)
≈ marks a conversion by molar mass, not a printed value. Where “and” joins values, the source holds several entries; their conditions need not be identical. Identical values can stand only once. Entries after “also recorded” stand apart in the source; their conditions may differ. Like-named read-outs stand apart in the source and are kept apart here. Marks after values point to notes of the source that are not given here.

Legend:
[1] = tested on: Mtb; conditions: reported by Brown et al., Bioorg. Med. Chem. 2011; cited from earlier work
[2] = tested on: MsmgΔmmpL3 expressing mmpL3tb S288T; assay type: cell-based, Mycobacterium smegmatis
[3] = tested on: E. coli BL21(DE3) IMVs; experiment: Succinate-driven proton translocation assay (ACMA) in inverted membrane vesicles; assay type: biochemical; conditions: 2 μg/mL
Method: (§1) FIG. 19A: The reactions were initiated by adding 5 mM succinate. Upon stabilization of the signal, control compounds (INH, RIF, nigericin), the MmpL3 inhibitors or diluent (water, used for INH, or 0.2% DMSO, used for all other compounds) were added and proton translocation monitored fluorimetrically. MmpL3 inhibitors and controls were used at one and four times their MIC concentrations against Mtb. Shown are the averages and standard deviations (error bars) of triplicate measurements.
(§2) Succinate-driven proton translocation assays with the fluorescent substrate ACMA were conducted as previously described (see e.g., Li et al. J. Med. Chem. 2014, 57: 3126-3139) to determine the effect of MmpL3 inhibitors on the electrochemical proton gradient of Mtb H37Rv mc^26206 and E. coli BL21(DE3) IMVs. IMVs (0.18 mg/mL membrane proteins) were pre-incubated at 37° C. in 10 mM HEPES-KOH pH 7.5, 100 mM KCl, 5 mM MgCl2 containing 2 μM ACMA and the baseline monitored for 10 min with a fluorescence spectrophotometer (Victor X5, PerkinElmer). The reaction was then initiated by adding 5 mM succinate. Upon stabilization of the signal, control compounds (INH, RIF, nigericin), MmpL3 inhibitors, or diluent (0.2% DMSO or water) were added and proton translocation monitored fluorimetrically. The excitation and emission wavelengths were 410 nm and 480 nm, respectively.

[4] = tested on: MsmgΔmmpL3 expressing mmpL3tb G253W; assay type: cell-based, Mycobacterium smegmatis
[5] = BLI assay buffer
[6] = tested on: MsmgΔmmpL3 expressing mmpL3tb G253E; assay type: cell-based, Mycobacterium smegmatis
[7] = tested on: MsmgΔmmpL3 expressing mmpL3tb V684W; assay type: cell-based, Mycobacterium smegmatis
[8] = tested on: MsmgΔmmpL3 expressing mmpL3tb F644C; assay type: cell-based, Mycobacterium smegmatis
[9] = tested on: MsmgΔmmpL3 expressing mmpL3tb S591W; assay type: cell-based, Mycobacterium smegmatis
[10] = tested on: MsmgΔmmpL3 expressing mmpL3tb V684A; assay type: cell-based, Mycobacterium smegmatis
[11] = target: purified MmpL3tb protein (Mycobacterium tuberculosis, UniProt P9WJV5); experiment: Surface Plasmon Resonance binding to immobilized MmpL3tb; conditions: for ka2 / kd1 / kd2 / ka1: SPR global fit; for ka1: HEPES-TX buffer with 5% DMSO; for Model (best-fit kinetic model): SPR sensorgrams fit globally; for Kd: equilibrium dissociation constant calculated from the rate constants; for SPR binding signal: in words
[12] = tested on: MsmgΔmmpL3 expressing mmpL3tb F644C/I/L; assay type: cell-based, Mycobacterium smegmatis
[13] = tested on: transmembrane electrochemical proton gradient (ΔpH) of intact Mtb H37Rv mc^26206 cells; experiment: Electrochemical proton gradient measurement with CMFDA in intact cells; assay type: cell-based, Mycobacterium tuberculosis
[14] = tested on: MsmgΔmmpL3 expressing mmpL3tb LI89A; experiment: microbe, parasite or virus in culture; assay type: cell-based; conditions: Table 2, mutant LI89A
[15] = tested on: MsmgΔmmpL3 expressing mmpL3tb Q372R; assay type: cell-based, Mycobacterium smegmatis
[16] = tested on: MsmgΔmmpL3 expressing mmpL3tb S591G; assay type: cell-based, Mycobacterium smegmatis
[17] = tested on: MsmgΔmmpL3 expressing mmpL3tb F644Y; assay type: cell-based, Mycobacterium smegmatis
[18] = tested on: Mtb; experiment: MIC values against Mtb used for the PMF assays; assay type: cell-based, Mycobacterium tuberculosis; conditions: against Mtb, FIG. 8 legend, read-out: MIC values
[19] = tested on: MsmgΔmmpL3 expressing mmpL3tb L189R; assay type: cell-based, Mycobacterium smegmatis
[20] = tested on: transfer of mycolic acids onto their cell envelope acceptors in MsmgΔmmpL3/pMVGH1-mmpL3tb; assay type: cell-based; conditions: 3 hours
[21] = tested on: MsmgΔmmpL3 expressing mmpL3tb S591I; assay type: cell-based, Mycobacterium smegmatis
[22] = tested on: Mtb H37Rv mc^26206 inverted membrane vesicles (IMVs); experiment: Succinate-driven proton translocation assay (ACMA) in inverted membrane vesicles; assay type: biochemical, Mycobacterium tuberculosis; conditions: one and four times MIC against Mtb
Method: as §1, §2

[23] = tested on: MsmgΔmmpL3 expressing mmpL3tb L567P; assay type: cell-based, Mycobacterium smegmatis
[24] = target: purified MmpL3-GFP (Mycobacterium tuberculosis, UniProt P9WJV5); assay type: binding; conditions: 2 μM Compound 2 with increasing inhibitor concentrations
[25] = tested on: transmembrane potential (ΔΨ) of intact Mtb H37Rv mc^26206 cells; experiment: Membrane potential measurement with DiOC2(3) in intact cells; assay type: cell-based, Mycobacterium tuberculosis
[26] = tested on: MsmgΔmmpL3 expressing mmpL3tb V684I; assay type: cell-based, Mycobacterium smegmatis
[27] = tested on: MsmgΔmmpL3 expressing mmpL3tb S309C; assay type: cell-based, Mycobacterium smegmatis
[28] = tested on: MsmgΔmmpL3 expressing mmpL3tb T311I; assay type: cell-based, Mycobacterium smegmatis
[29] = tested on: MsmgΔmmpL3 expressing mmpL3tb G253R; assay type: cell-based, Mycobacterium smegmatis
[30] = target: MmpL3tb (MmpL3^WT) (Mycobacterium tuberculosis, UniProt P9WJV5); assay type: binding; conditions: 50, 100 and 200 μM
[31] = tested on: MsmgΔmmpL3 expressing wild-type mmpL3tb; experiment: microbe, parasite or virus in culture; assay type: cell-based; conditions: MmpL3 WT
[32] = tested on: MsmgΔmmpL3 expressing mmpL3tb V684G; assay type: cell-based, Mycobacterium smegmatis
[33] = tested on: MmpL3tb-GFP in MsmgΔmmpL3/pMVGH1-mmpL3tb-GFP cells; assay type: cell-based; conditions: 2 μM probe, 4 h at 37° C.
[34] = target: T1, MmpL3tb- and MmpL3tb-GFP-coated particles (Mycobacterium tuberculosis, UniProt P9WJV5); assay type: binding; conditions: 15 min at room temperature; various probe concentrations
T1 construct: His tag; made in house; host or cells: Mycobacterium smegmatis ΔmmpL3 carrying pMVGH1-mmpL3tb or pMVGH1-mmpL3tb-gfp

[35] = target: MmpL3tb in MsmgΔmmpL3/pMVGH1-mmpL3tb cells (Mycobacterium tuberculosis, UniProt P9WJV5); assay type: cell-based
[36] = Mycolicibacterium smegmatis, Tables 1A-1B, read-out: MIC

Sequence of purified MmpL3-GFP (P9WJV5 whole entry): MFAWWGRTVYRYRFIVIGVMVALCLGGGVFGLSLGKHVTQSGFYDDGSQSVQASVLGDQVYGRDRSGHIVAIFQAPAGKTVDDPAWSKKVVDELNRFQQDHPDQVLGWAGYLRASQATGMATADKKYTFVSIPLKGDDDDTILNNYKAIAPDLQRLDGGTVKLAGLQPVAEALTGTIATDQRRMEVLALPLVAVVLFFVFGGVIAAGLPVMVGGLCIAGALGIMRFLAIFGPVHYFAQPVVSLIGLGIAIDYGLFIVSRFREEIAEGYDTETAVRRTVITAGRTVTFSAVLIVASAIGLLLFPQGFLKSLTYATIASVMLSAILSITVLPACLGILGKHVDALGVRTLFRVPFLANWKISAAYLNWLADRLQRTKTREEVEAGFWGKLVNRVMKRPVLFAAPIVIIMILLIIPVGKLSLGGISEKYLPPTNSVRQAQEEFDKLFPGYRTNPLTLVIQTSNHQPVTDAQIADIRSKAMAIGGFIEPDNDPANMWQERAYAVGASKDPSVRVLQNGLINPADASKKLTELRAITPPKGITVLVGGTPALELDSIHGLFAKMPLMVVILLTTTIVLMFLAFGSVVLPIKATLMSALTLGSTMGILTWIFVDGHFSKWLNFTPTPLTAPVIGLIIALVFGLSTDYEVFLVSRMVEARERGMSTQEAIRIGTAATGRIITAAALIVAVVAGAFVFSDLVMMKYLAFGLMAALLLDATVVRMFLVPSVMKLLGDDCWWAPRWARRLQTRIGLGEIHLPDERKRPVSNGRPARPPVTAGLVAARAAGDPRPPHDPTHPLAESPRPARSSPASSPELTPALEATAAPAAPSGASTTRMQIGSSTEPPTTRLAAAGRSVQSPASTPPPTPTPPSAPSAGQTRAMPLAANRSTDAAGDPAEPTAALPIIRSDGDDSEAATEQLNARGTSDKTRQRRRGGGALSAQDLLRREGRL
Sequence of purified MmpL3tb protein (P9WJV5 whole entry): as above
Sequence of MmpL3tb (MmpL3^WT) (P9WJV5 whole entry): as above
Sequence of MmpL3tb in MsmgΔmmpL3/pMVGH1-mmpL3tb cells (P9WJV5 whole entry, looked up, stated change not applied): as the sequence (P9WJV5 whole entry) above
T1 sequence (P9WJV5 whole entry): as above

Row | SMILES | MIC [2] | effect on ΔpH of E. coli IMVs [3] | MIC [4] | MIC [6] | MIC [7] | MIC [8] | MIC [9] | MIC [10] | ka2 [11] | kd1 [11] | kd2 [11] | ka1 [11] | Model (best-fit kinetic model) [11] | Kd ([11]; read-out: KD1) | MIC [12] | MIC [15] | MIC [23] | displacement of Compound 2 from purified MmpL3tb [24] | MIC [27] | MIC [28] | further results
1 | COC(=O)c1ccc(NC(=O)NC23CC4CC(CC(C4)C2)C3)cc1O [AU, methyl 1-(1-adamantyl)-3-(4-aminosalicylate)urea] |  |  |  |  |  |  |  |  |  |  |  |  |  |  |  |  |  |  |  |  | Mtb MIC value [1]: 0.4 µg/mL
2 | Cc1c(CN2CCN(C)CC2)cc(-c2ccc(Cl)cc2)n1-c1ccc(Cl)cc1 [BM212] | 25.0^b μg/mL | showed no such activity | 8 µg/mL (≈ 19.3 µM) | 12.5 µg/mL and 8 µg/mL | 4 µg/mL (≈ 9.65 µM) | 3.13 µg/mL (≈ 7.55 µM) | 4^c μg/mL | 6.25 µg/mL and 4 µg/mL | 0.005 1/RU*s | 1.67 s⁻¹ | 0.0222 s⁻¹ | 1054.8 M⁻¹ s⁻¹ | Two-state reaction | 1290 µM | 4 µg/mL (≈ 9.65 µM) | 12.5 µg/mL (≈ 30.2 µM) | 12.5 µg/mL (≈ 30.2 µM) | clear concentration-dependent displacement | 12.5 µg/mL (≈ 30.2 µM) | 12.5 µg/mL (≈ 30.2 µM) | solubility limit in 5% DMSO [5]: 50 µM (≈ 20.7 µg/mL); effect on electrochemical proton gradient (ΔpH) [13]: collapsed ΔpH; MIC [14]: 8 µg/mL (≈ 19.3 µM); MIC [16]: 1^c μg/mL; MIC [17]: 8 µg/mL (≈ 19.3 µM); MIC [18]: 3.76 µM (≈ 1.56 µg/mL); MIC [19]: 12.5 µg/mL and 8 µg/mL; inhibition of transfer of mycolic acids to cell envelope acceptors [20]: actually targeted MmpL3tb in the Msmg recombinant system; MIC [21]: 25.0^b μg/mL and 16 μg/mL; effect on ΔpH of Mtb IMVs [22]: increase of fluorescence intensity indicative of ΔpH collapse; effect on membrane potential (ΔΨ) [25]: only showed an effect on ΔΨ at the highest concentration tested (8×MIC); MIC [26]: 2 µg/mL (≈ 4.83 µM); MIC [29]: 8 µg/mL (≈ 19.3 µM); BLI binding signal [30]: only yielded weak binding signals; MIC ([31]; Table 2): 4 µg/mL (≈ 9.65 µM); MIC ([31]; Tables 1A-1B): 6.25 µg/mL (≈ 15.1 µM)
3 | C[C@@H]1C(NC(=O)c2cc3cc(OCc4cn(CCCCCCNC(=O)c5ccc(-c6c7ccc(=[N+](C)C)cc-7oc7cc(N(C)C)ccc67)c(C(=O)O)c5)nn4)ccc3[nH]2)C[C@H]2C[C@@H]1C2(C)C (some centres unmarked) [Compound 2] | 4 µg/mL |  |  | 8 µg/mL |  | 8 µg/mL |  | 4 µg/mL | 540.582 1/RU*s | 0.02 s⁻¹ | 0.1556 s⁻¹ | 36380.1 M⁻¹ s⁻¹ | Heterogeneous ligand | 0.5 µM |  | 16^b μg/mL | 4 µg/mL |  | 8 µg/mL | 4 µg/mL | MIC [32]: 4 µg/mL; Kd ([11]; read-out: KD2): 288 µM; SPR binding signal [11]: strong SPR signals; MIC [19]: 8 µg/mL; MIC [21]: 8 µg/mL; colocalization with MmpL3tb-GFP [33]: colocalization of the probes with MmpL3tb-GFP; probe binding to coated particles (MFI) [34]: concentration-dependent binding; MIC [31, 36]: 4 µg/mL
4 | NNC(=O)c1ccncc1 [INH, isoniazid] |  |  |  |  |  |  |  |  |  |  |  |  |  |  |  |  |  | No significant displacement |  |  | MIC ([18]; Mycobacterium tuberculosis): 0.58 µM (≈ 0.0795 µg/mL); displacement of probe (Compound 1 or Compound 2) in intact cells [35]: not observed
5 | CC(C)=CCC/C(C)=C/CNCCNC1C2CC3CC(C2)CC1C3 (centres unmarked) [SQ109] | 3.13^a μg/mL | collapse the ΔpH of E. coli IMVs; also recorded: similarly dissipated the pH gradient of IMVs prepared from E. coli | 0.15-0.3^d μg/mL | 1.25^b μg/mL and 1.25 μg/mL | 0.07-0.15^d μg/mL | 1.56^b μg/mL | 0.31^c μg/mL |  | 0.025 1/RU*s | 2.32 s⁻¹ | 0.0436 s⁻¹ | 1208.2 M⁻¹ s⁻¹ | Two-state reaction |  | 0.62-1.25^ μg/mL | 0.78 µg/mL (≈ 2.36 µM) | 1.56^b μg/mL | not significant | 6.25^a μg/mL | 0.78 µg/mL (≈ 2.36 µM) | MIC [32]: 0.39 μg/mL and 0.31-0.62^ μg/mL; SPR binding signal [11]: strong SPR signals; effect on electrochemical proton gradient (ΔpH) [13]: collapsed ΔpH; MIC ([14]; Mycolicibacterium smegmatis, read-out: MIC): 0.31 to 0.62 µg/mL (≈ 0.938 to 1.88 µM); MIC [16]: 0.31^c μg/mL; MIC [17]: 0.15-0.31^c μg/mL; MIC ([18]; Mycobacterium tuberculosis): 2.36 µM (≈ 0.78 µg/mL); inhibition of transfer of mycolic acids to cell envelope acceptors [20]: actually targeted MmpL3tb in the Msmg recombinant system; effect on ΔpH of Mtb IMVs [22]: increase of fluorescence intensity indicative of ΔpH collapse; effect on membrane potential (ΔΨ) [25]: dissipated ΔΨ in a concentration-dependent manner; MIC [26]: 0.31-0.62^ μg/mL; MIC [29]: 0.31-0.62^c μg/mL; BLI binding signal [30]: consistently bound to MmpL3tb with the strongest signals; MIC ([31]; Mycolicibacterium smegmatis, Table 2, read-out: MIC): 0.31 µg/mL (≈ 0.938 µM); MIC [31, 36]: 0.39 µg/mL (≈ 1.18 µM)
